Results taken from patent US20250101032A1, “EXATECAN DERIVATIVES AND ANTIBODY-DRUG CONJUGATES THEREOF” (priority 2021, published 2025).
In brackets after ≈: the same amount, converted by molar mass. Like-named read-outs stand apart in the source and are kept apart here.

Tests used:
NCI-H292 = assay: In vitro cytotoxicity assay (CellTiter-Glo), NCI-H292; type: cell-based, Human; conditions: read-out: Cytotoxicity IC50
Method: (§1) Human tumor cell lines, SK-BR-3, NCI-H292, HT-29, MCF-7, NCI-N87, and FaDu were obtained from ATCC. NCI-H292, HT-29, MCF-7, and NCI-N87 cells were cultured in RPMI-1640 media (Gibco, Life Technologies) supplemented with 10% v/v heat inactivated FBS (Corning), FaDu cells were maintained in DMEM media (Gibco, Life Technologies) supplemented with 10% v/v heat inactivated FBS (Corning). SK-BR-3 cells were maintained in McCoys 5A medium (Gibco, Life Technologies) supplemented with 10% […] heat inactivated FBS (Corning) at 37° C. in a humidified incubator containing 5% CO2.
(§2) Lyophilized compounds were dissolved in 100% dry DMSO, aliquots frozen and stored at −80° C. Concentration and purity of compound stock solutions in DMSO were determined by RP-HPLC Agilent 1100 platform with 1200 DAD and SofTA ELSD detectors, and the Agilent 6150 MS system (UV/VIS, ELSD purity and MS compound identity confirmation). Shimadzu 3.0 mm×30 mm XR ODS 2.2 μm column was run at 50° C., 1.5 mL/min. Solvent A: 0.1% Formic acid in water, Solvent B: 0.08% Formic acid in methanol-Gradient: 5%-100% B in 3.0 min, 100% solvent B for 0.3 min. Concentration of compounds in 100% DMSO determined by ELS ranged from 1-6 mM.
(§3) Cells were plated in 96-well white flat-bottomed plates (Corning) at 2.0×10^3 cells per well in 100 μL culture medium. After incubation for 24 hours, test compounds were added at a range of concentrations as ten point serial dilution as duplicates or triplicates. Following further incubation for 6 days 37° C., 5% CO2, cell viability was assessed with the use of a CellTiter-Glo Luminescent Cell Viability Assay (Promega). Luminescence was measured using the GloMax instrument (Promega). […] For a subset of payloads, each treatment was independently repeated two to eight times, and IC50 values were averaged. […] Standard deviation (stdev) is shown as (N/A) for treatment performed once.

SKOV3 = assay: In vitro cytotoxicity assay (CellTiter-Glo), SKOV3; type: cell-based; conditions: read-out: Cytotoxicity IC50
Method: (§4) Lyophilized compounds were dissolved in 100% dry DMSO, aliquots frozen and stored at −80° C. […] Shimadzu 3.0 mm×30 mm XR ODS 2.2 μm column was run at 50° C., 1.5 mL/min. Solvent A: 0.1% Formic acid in water, Solvent B: 0.08% Formic acid in methanol-Gradient: 5%-100% B in 3.0 min, 100% solvent B for 0.3 min.
as §3

FaDu = assay: In vitro cytotoxicity assay (CellTiter-Glo), FaDu; type: cell-based, Human; conditions: read-out: Cytotoxicity IC50
Method: as §1, §2, §3

HT29 = assay: In vitro cytotoxicity assay (CellTiter-Glo), HT29; type: cell-based, Human; conditions: read-out: Cytotoxicity IC50
Method: as §1, §2, §3

SKBR3 = assay: In vitro cytotoxicity assay (CellTiter-Glo), SKBR3; type: cell-based, Human; conditions: read-out: Cytotoxicity IC50
Method: as §1, §2, §3

BXPC3 = assay: In vitro cytotoxicity assay (CellTiter-Glo), BXPC3; type: cell-based; conditions: read-out: Cytotoxicity IC50
Method: as §4, §3

NCI-N87 = assay: In vitro cytotoxicity assay (CellTiter-Glo), NCI-N87; type: cell-based, Human; conditions: read-out: Cytotoxicity IC50
Method: as §1, §2, §3

MCF7 = assay: In vitro cytotoxicity assay (CellTiter-Glo), MCF7; type: cell-based, Human; conditions: read-out: Cytotoxicity IC50
Method: as §1, §2, §3

physchem = conditions: 25 °C, pH 7.4, aqueous buffer, kinetic from dmso stock
Method: In-vitro kinetic solubilities of the compounds in PBS pH 7.4 buffer at 25° C. were determined by diluting compounds from 100% dimethyl sulfoxide (DMSO) into PBS buffer and measuring absorbance at 490, 590 and 650 nm. Stock concentrations in 100% DMSO were provided at 1-6 mM in 100% DMSO. Kinetic solubilities were determined by diluting test compounds from 100% DMSO into PBS pH 7.4 buffer, as duplicate, 10 point 2-fold serial dilution starting at 100× dilution of stock DMS solution into PBS buffer in a clear, flat bottom polystyrene assay plates. Total assay volume was 200 microliters. Solutions were mixed by plate shaking, incubated for 30 m at 25° C., and absorbance was read at 490, 590 and 650 nm. […] in PBS buffer was used as a blank. For each test compound, average optical density (GD) at each concentration was determined by averaging the blank corrected sum of absorption at 490 nm, 590 nm and 650 nm, over duplicate measurements. Turbidity threshold optical density value was set as a sum of mean plus two standard deviations of the mean of absorbances at 490, 590 and 650 nm for 1% (v/v) DMSO in PBS pH 7.4 buffer. Highest soluble concentration (micromolar) corresponded to the highest concentration at which average optical density was below optical density value set for turbidity threshold (Table 4). Amiodarone and propranolol were used as low and high solubility controls respectively.

Compound | IC50 (NCI-H292; Homo sapiens, NCI-H292, 144 h) [nM] | IC50 (SKOV3; Homo sapiens, SK-OV-3, 144 h) [nM] | IC50 (FaDu; Homo sapiens, FaDu, 144 h) [nM] | IC50 (HT29; Homo sapiens, HT-29, 144 h) [nM] | IC50 (SKBR3; Homo sapiens, SK-BR-3, 144 h) [nM] | IC50 (BXPC3; Homo sapiens, BXPC-3, 144 h) [nM] | IC50 (NCI-N87; Homo sapiens, NCI-N87, 144 h) [nM] | IC50 (MCF7; Homo sapiens, MCF7, 144 h) [nM] | solubility at 30 min (physchem) [µM] | IC50 (NCI-H292; NCI-H292 cells, 6 days incubation, mean of IC50 values) [nM] | IC50 (SKOV3; SKOV3 cells, 6 days incubation, mean of IC50 values) [nM] | IC50 (FaDu; FaDu cells, 6 days incubation, mean of IC50 values) [nM] | IC50 (HT29; HT29 cells, 6 days incubation, mean of IC50 values) [nM] | IC50 (SKBR3; SKBR3 cells, 6 days incubation, mean of IC50 values) [nM] | IC50 (BXPC3; BXPC3 cells, 6 days incubation, mean of IC50 values) [nM] | IC50 (NCI-N87; NCI-N87 cells, 6 days incubation, mean of IC50 values) [nM] | IC50 (MCF7; MCF7 cells, 6 days incubation, mean of IC50 values) [nM]
CC[C@@]1(O)C(=O)OCc2c1cc1n(c2=O)Cc2c-1nc1cc(F)c(C)c3c1c2[C@@H](NC(=O)[C@@H]1C[C@H]1CO)CC3 (single isomer, unassigned) [Compound 111-A] | 18 | 24.5 | 1.9 | 34.4 | 6 | 5.6 | 13.1 | 16.7 | 23 (≈ 12.3 µg/mL) | – | – | – | – | – | – | – | –
CC[C@@]1(O)C(=O)OCc2c1cc1n(c2=O)Cc2c-1nc1cc(F)c(C)c3c1c2[C@@H](Nc1c(NCCO)c(=O)c1=O)CC3 [Compound 2] | 96 | 124 | 23.4 | 180 | 75.4 | 29.8 | 111 | 41.4 | 15 (≈ 8.62 µg/mL) | – | – | – | – | – | – | – | –
CC[C@@]1(O)C(=O)OCc2c1cc1n(c2=O)Cc2c-1nc1cc(F)c(C)c3c1c2[C@@H](NC(=O)CC(=O)NCCO)CC3 [Compound 12] | 68.6 | 151 | 16.4 | 318 | 30.5 | 45.6 | 92 | 43.9 | 17 (≈ 9.6 µg/mL) | – | – | – | – | – | – | – | –
CC[C@@]1(O)C(=O)OCc2c1cc1n(c2=O)Cc2c-1nc1cc(F)c(C)c3c1c2[C@@H](NC(=O)CCC(=O)NCCO)CC3 [Compound 16] | 290 | 341 | 72 | 1140 | 166 | 149 | 736 | 140 | 22 (≈ 12.7 µg/mL) | – | – | – | – | – | – | – | –
CC[C@@]1(O)C(=O)OCc2c1cc1n(c2=O)Cc2c-1nc1cc(F)c(C)c3c1c2[C@@H](Nc1c(NC(CO)(CO)CO)c(=O)c1=O)CC3 [Compound 18] | 82.1 | 167 | 42.9 | 179 | 65.7 | 44.9 | 158 | 40.7 | 13 (≈ 8.25 µg/mL) | – | – | – | – | – | – | – | –
CC[C@@]1(O)C(=O)OCc2c1cc1n(c2=O)Cc2c-1nc1cc(F)c(C)c3c1c2[C@@H](NC(=O)OCCO)CC3 [Compound 22] | 2.7 | 1.9 | 0.7 | 5.7 | 1.2 | 0.7 | 2.6 | 2.3 | 23 (≈ 12 µg/mL) | – | – | – | – | – | – | – | –
CC[C@@]1(O)C(=O)OCc2c1cc1n(c2=O)Cc2c-1nc1cc(F)c(C)c3c1c2[C@@H](NC(=O)NCCO)CC3 [Compound 42] | 2.4 | 19.5 | 2.9 | 10.2 | 5.2 | 5.6 | 12 | 11.8 | 8 (≈ 4.18 µg/mL) | – | – | – | – | – | – | – | –
CC[C@@]1(O)C(=O)OCc2c1cc1n(c2=O)Cc2c-1nc1cc(F)c(C)c3c1c2[C@@H](NC(=O)NC(CO)(CO)CO)CC3 [Compound 48] | 27.1 | 77.8 | 2.8 | 63.6 | 12.6 | 20.3 | 43 | 11.8 | 28 (≈ 16.3 µg/mL) | – | – | – | – | – | – | – | –
CC[C@@]1(O)C(=O)OCc2c1cc1n(c2=O)Cc2c-1nc1cc(F)c(C)c3c1c2[C@@H](NC(=O)c1cn(CCO)nn1)CC3 [Compound 52] | 6.8 | 12.9 | 4.2 | 23.3 | 2.5 | 3.4 | 10.1 | 5.9 | 25 (≈ 14.4 µg/mL) | – | – | – | – | – | – | – | –
CC[C@@]1(O)C(=O)OCc2c1cc1n(c2=O)Cc2c-1nc1cc(F)c(C)c3c1c2[C@@H](NC(=O)Cc1cn(CCO)nn1)CC3 [Compound 66] | 24.7 | 43.3 | 7.9 | 78.1 | 7.3 | 9.8 | 30 | 23.9 | 21 (≈ 12.4 µg/mL) | – | – | – | – | – | – | – | –
CC[C@@]1(O)C(=O)OCc2c1cc1n(c2=O)Cc2c-1nc1cc(F)c(C)c3c1c2[C@@H](NC(=O)C1OC(O)C(O)C1O)CC3 (stereo partly shown) [Compound 100] | 228 | 90.5 | 7 | 93.4 | 36 | 26.9 | 78.6 | 28.8 | 29 (≈ 16.9 µg/mL) | – | – | – | – | – | – | – | –
CC[C@@]1(O)C(=O)OCc2c1cc1n(c2=O)Cc2c-1nc1cc(F)c(C)c3c1c2[C@@H](NC(=O)c1ccc(CO)o1)CC3 [Compound 103] | 6 | 26.5 | 1.5 | 14.4 | 6.9 | 6.4 | 17.2 | 4.6 | 7 (≈ 3.92 µg/mL) | – | – | – | – | – | – | – | –
CC[C@@]1(O)C(=O)OCc2c1cc1n(c2=O)Cc2c-1nc1cc(F)c(C)c3c1c2[C@@H](NCCO)CC3 [Compound 105] | 1.7 | 1.8 | 1.3 | 2.1 | 0.9 | 0.6 | 1.6 | 1.4 | 25 (≈ 12 µg/mL) | – | – | – | – | – | – | – | –
CC[C@@]1(O)C(=O)OCc2c1cc1n(c2=O)Cc2c-1nc1cc(F)c(C)c3c1c2[C@@H](NCc1cn(CCO)nn1)CC3 [Compound 108] | 8.1 | 6.6 | 2.4 | 13.2 | 2.9 | 2.3 | 8.3 | 4.4 | 10 (≈ 5.61 µg/mL) | – | – | – | – | – | – | – | –
CC[C@@]1(O)C(=O)OCc2c1cc1n(c2=S)Cc2c-1nc1cc(F)c(C)c3c1c2[C@@H](NC(=S)CO)CC3 [Compound 148] | 1.1 | 0.2 | – | 0.9 | 0.3 | 0.1 | 0.2 | 0.1 | 3 (≈ 1.58 µg/mL) | – | – | – | – | – | – | – | –
SN-38 | – | – | – | – | – | – | – | – | – | 2.5 | 3.2 | 2.2 | 5.1 | 1.8 | 0.5 | 4.2 | 4.3
